What all share (format): cell-based
Experiment [1] has as its system promastigotes of Leishmania mexicana. The experiment in a line: Leishmanicidal activity, MTT assay on promastigotes. Particulars: for SI (Selectivity Index) = Citotoxic activity/Leishmanicidal activity: CC50 RAW / IC50 L. mexicana; for IC50: Leishmania mexicana. How it is done: The leishmanicidal activity of all compounds was evaluated by measuring promastigotes’ mitochondrial activity using MTT colorimetric assay as described previously. In this study, promastigotes from Leishmania mexicana were used. The species were confirmed by amplifying and sequencing cytochrome b gene. Promastigotes were cultured at 25 °C in Schneider’s Drosophila Medium (Gibco, Invitrogen, Carlsbad, CA, USA) supplemented with 10% fetal bovine serum (Eurobio, Les Ulis, France). The medium was renewed every third day. Parasite density was determined by counting the cells using a Neubauer chamber.
Into each well of a 96-well plate were dispensed 1 × 10^6 parasites/well. A stock solution of the compounds was prepared in DMSO (Sigma Aldrich, Saint Louis, MO, USA), and serial dilutions were added to the parasite suspension, leading to concentrations ranging from 100 to 0.001 µM, keeping the solvent concentration at 0.5%. The final volume was 200 µL for each well and triplicate conditions were carried out. Amphotericin B (Gibco) treatment (1 µM) untreated parasites and DMSO 0.5% were used as positive and negative controls, respectively. After exposure to the compounds for 48 h in culture medium, 20 µL of a solution of 5 mg/mL MTT dissolved in PBS were added to each well. The plate was incubated at 25 °C for 2 h in darkness. The plate was then centrifuged at 4400 rpm for 10 min and the culture medium was then aspirated; 50 µL of DMSO were added into each well to solubilize the formazan crystals and the plate was shaken for 5 min and then it was measured by recording changes in absorbance at 570 nm using a microplate reader Cytation 5 (BioTek) spectrophotometer. A reference wavelength of 630 nm was used as background subtraction. Optical densities were analyzed because the quantity of formazan is directly proportional to the number of viable parasites. Data were analyzed with the statistical software GraphPad Prism 7.02 (GraphPad Software, Corp.).
On the technique in general: Formazan colour is commonly taken as a measure of viable cells.

Experiment [2] deals with Leishmania mexicana cells. The experiment in a line: Comet assay of Leishmania mexicana cells. More on the design: Comet tail length, mean (vary) / Comet tail length, median (Q50): unit not given here. Conditions: L. mexicana, 24 h at MIC; for Comet tail length, mean (vary) / Comet tail length, median (Q50): MMS 0.011%, Kruskal-Wallis $means; for Genotoxic effect (DNA breaks) in comet assay: in words. The procedure:
We quantified DNA breaks by a comet assay to determine if these compounds are genotoxic. Here, L. mexicana cells were exposed for 24 h to MIC concentrations previously determined (see Materials and Methods Section) for each compound. Figure 1 represents the measurements obtained for tail length. All compounds generated DNA breaks expect 4s. […] Samples with DMSO and MMS (0.011%) were included as controls. Some representative pictures are shown at Figure S4. The effect of 4p could not be determined because the cells appear to be very damaged. The data was subjected via a Kruskal–Wallis one-way ANOVA (Statistical Analyses S2). […] These observations support a mechanism of action through the generation of DNA damage.
For leishmania, a method previously described for yeast was adapted. Briefly, after incubating the cells in presence of the compounds for 24 h, cells were collected and washed with buffer S (1 M sorbitol, 25 mM KH2PO4 in ultrapure water and adjust to pH 6.5 with NaOH). The pellet was resuspended in 400 µL of 1.5% LMA and 40 µL was spread (second layer) onto previously agarose-coated slides (first layer).
Slides were immersed in cold lysis buffer (30 mM NaOH, 1 M NaCl, 0.05 % (w/v) lauroylsarcosine, 50 mM EDTA, and 10 mM Tris–HCl, pH 10) for 25 min and then in cold electrophoresis alkaline buffer (30 mM NaOH, 10 mM EDTA, and 10 mM Tris–HCl, pH 10). They were then subjected to electrophoresis at 26V and 300 mA. Slides were immersed in neutralization buffer (10 mM Tris–HCl, pH 7.4; prepared in advance and stored at 4 °C) for 10 min at room temperature. The cells were then treated with proteinase K (20 min, 37 °C in humid chamber), followed by a new neutralization step. To dehydrate the slides, they were immersed in EtOH 90% and EtOH absolute for 10 min each. Finally, the slides were stained with Sybr Gold 1X.
The DNA migration was analyzed using a LEICA microscope with fluorescence (40×) by scoring 100 cells per slide in duplicate. The tail moment parameter was then analyzed by the Comet Score software.

The next experiment deals with PC-3. The experiment in a line: MTS cell viability assay on PC-3 cells. Conditions: Homo sapiens, 48 h; for inhibition at 100 µM: Dox 1 µM, mean ± SEM, NA = no activity, read-out: Percentage (%) of inhibition, PC-3; for IC50: 15-150 µM, mean ± SEM of triplicates. How it is done:
Five tumor human cancer cell lines—cerebral astrocytoma (D-384), grade IV prostatic adenocarcinoma (PC-3), mammary adenocarcinoma (MCF-7), human colon carcinoma (RKO) and lung carcinoma (A-549)—along with one immortalized hamster cell line (CHO K-1) were used. The cells PC-3, MCF-7 and RKO were cultured in RPMI-1640, D-384 on DMEM and CHO K-1 on HAM F-12 medium supplemented with 10% fetal bovine serum (FBS, Invitrogen, Karlsruhe, Germany), 1% antibiotic-antimitotic solution (100 units/mL penicillin G, 100 µg/mL streptomycin, and 0.25 µg/mL amphotericin B, Gibco, Grand Island, NY, USA), and 1% L-glutamine (2 mM, Gibco). The cells were incubated at 37 °C in a 5% CO2 atmosphere. The viable cells were counted using the trypan blue exclusion method in a hemocytometer.
The MTS (5-[3-(carboxymethoxy)phenyl]-3-(4,5-dimethyl-2-thiazolyl)-2-(4-sulfo- phenyl)-2H-tetrazolium inner salt) cell viability assay was used to assess the inhibitory effects of the extracts on the survival of human cancer cell lines. A total of 3–5 × 10^3 cells/well were seeded into 96-well plates and were allowed to adhere for 24 h. […] Each concentration/assay was performed three times. Dimethyl sulfoxide (DMSO) was used as a negative control at a final concentration of 0.1% v/v, and 1 µM Doxorubicin was used as a positive control. The cells were incubated with the treatments for 48 h, after which 20 µL MTS (5 mg/mL, Aqueous One Solution Reagent, Gibco) was added and further incubated for 4 h at 37 °C. The absorbance was measured at 570 nm. The data obtained with cells treated with DMSO were defined to represent 100% viability.

The subject of another experiment is HeLa. The experiment in a line: MTS cell viability assay on HeLa cells. Conditions: Homo sapiens, 48 h, Dox 1 µM, mean ± SEM, NA = no activity, read-out: Percentage (%) of inhibition, HeLa.
Experiment [3] can be described thus: MTS cell viability assay on A-549 cells. Particulars: Homo sapiens; 48 h, 15-150 µM, mean ± SEM of triplicates.
Setting [4] is: read-out: IC50 original values, x.1 (Mean).
The mark [5] stands for this setting: L. mexicana promastigotes, 48 h, MTT, read-out: Leishmanicidal Activity IC50.

Structures are written as SMILES. Entries after “also recorded” stand apart in the source; their conditions may differ. Read-outs that look alike come from different tables or passages of the source.

As usually defined, the IC50 is the concentration that inhibits the measured activity by half. As a reminder, the inhibition is the share of the control response that was lost under treatment.

As for `CC1=NN(c2ccccc2)C(=O)[C@@]12C(c1ccccc1)[C@@]21C(=O)N(c2ccccc2)N=C1C` (relative stereo) [4b, (5R*,6R*)-4,10-Dimethyl-2,8,11-triphenyl-2,3,8,9-tetraazadispiro[4.0.4.1]undeca-3,9-diene-1,7-dione], the “SI (Selectivity Index) = Citotoxic activity/Leishmanicidal activity” value in experiment [1] is recorded as 21.3. Further, the IC50 in experiment [1] (setting [4]) stood at 158 nM. Moreover, the IC50 in experiment [1] (setting [5]) came out at 160 nM. For the same molecule, in experiment [2], the “Comet tail length, mean (vary)” value is listed as 50400000 and the “Comet tail length, median (Q50)” value is 55000000. The inhibition at 100 µM in the experiment with PC-3 is 17.6 ± 2.83%.

Take `CC1=NN(c2ccccc2)C(=O)[C@@]12C(c1ccccc1[N+](=O)[O-])[C@@]21C(=O)N(c2ccccc2)N=C1C` (relative stereo) [4c, (5R*,6R*)-11-(2-Nitrophenyl)-4,10-dimethyl-2,8-diphenyl-2,3,8,9-tetraazadispiro[4.0.4.1]undeca-3,9-diene-1,7-dione]: the “SI (Selectivity Index) = Citotoxic activity/Leishmanicidal activity” value in experiment [1] is 15.3. For the same molecule, the IC50 in experiment [1] (setting [4]) worked out at 150 nM; in experiment [1] (setting [5]), 150 ± 40 nM. Moreover, the “Comet tail length, mean (vary)” value in experiment [2] is 70710000. The “Comet tail length, median (Q50)” value in experiment [2] stood at 72500000. The inhibition at 100 µM is 11 ± 3.5% with PC-3 and 24.8 ± 1.74% in the experiment with HeLa.

In the case of `CC1=NN(c2ccccc2)C(=O)[C@@]12C(c1cccc([N+](=O)[O-])c1)[C@@]21C(=O)N(c2ccccc2)N=C1C` (relative stereo) [4d, (5R*,6R*)-11-(3-Nitrophenyl)-4,10-dimethyl-2,8-diphenyl-2,3,8,9-tetraazadispiro[4.0.4.1]undeca-3,9-diene-1,7-dione], in experiment [1], the “SI (Selectivity Index) = Citotoxic activity/Leishmanicidal activity” value is reported as 26.0. For the same molecule, the IC50 is 148 nM in experiment [1] (setting [4]), 150 ± 20 nM in experiment [1] (setting [5]), 94800 ± 4540 nM in experiment [3] and 90900 ± 2560 nM in the experiment on PC-3. Also, the “Comet tail length, mean (vary)” value in experiment [2] stood at 75120000. For the same molecule, in experiment [2], the “Comet tail length, median (Q50)” value is listed as 83500000. For the same molecule, the results for the inhibition at 100 µM with PC-3 and in the experiment with HeLa were 46.1 ± 1.91% and 48.6 ± 4.91%, respectively.

Consider `COc1ccc(C2[C@@]3(C(=O)N(c4ccccc4)N=C3C)[C@]23C(=O)N(c2ccccc2)N=C3C)cc1` (relative stereo) [4e, (5R*,6R*)-11-(4-Methoxyphenyl)-4,10-dimethyl-2,8-diphenyl-2,3,8,9-tetraazadispiro[4.0.4.1]undeca-3,9-diene-1,7-dione], for which the “SI (Selectivity Index) = Citotoxic activity/Leishmanicidal activity” value in experiment [1] is 4.9. Also, the IC50 is 1480 nM in experiment [1] (setting [4]) and 1480 ± 250 nM in experiment [1] (setting [5]). For the same molecule, the “Comet tail length, mean (vary)” value in experiment [2] came to 65120000. Also, in experiment [2], the “Comet tail length, median (Q50)” value is 64500000. Besides, the inhibition at 100 µM in the experiment with PC-3 was determined as 17.9 ± 3.4%; in the experiment on HeLa, 47.8 ± 2.45%.

As for `COc1ccccc1C1[C@@]2(C(=O)N(c3ccccc3)N=C2C)[C@]12C(=O)N(c1ccccc1)N=C2C` (relative stereo) [4f, (5R*,6R*)-11-(2-Methoxyphenyl)-4,10-dimethyl-2,8-diphenyl-2,3,8,9-tetraazadispiro[4.0.4.1]undeca-3,9-diene-1,7-dione], the “SI (Selectivity Index) = Citotoxic activity/Leishmanicidal activity” value in experiment [1] was 5.7. Besides, the IC50 in experiment [1] (setting [4]) is 2230 nM. Also, the IC50 in experiment [1] (setting [5]) was determined as 2230 ± 70 nM. Further, in experiment [2], the “Comet tail length, mean (vary)” value is 75100000 and the “Comet tail length, median (Q50)” value was 80500000. Further, in the experiment on PC-3, the inhibition at 100 µM was determined as 28.3 ± 2.56%.

`CC1=NN(c2ccccc2)C(=O)[C@@]12C(c1ccc([N+](=O)[O-])cc1)[C@@]21C(=O)N(c2ccccc2)N=C1C` (relative stereo) [4k, (5R*,6R*)-11-(4-Nitrophenyl)-4,10-dimethyl-2,8-diphenyl-2,3,8,9-tetraazadispiro[4.0.4.1]undeca-3,9-diene-1,7-dione]: the “SI (Selectivity Index) = Citotoxic activity/Leishmanicidal activity” value in experiment [1] stood at 11.0. Further, the IC50 in experiment [1] (setting [4]) came to 295 nM; in experiment [1] (setting [5]), 300 ± 90 nM; in experiment [3], 114000 ± 6370 nM; with PC-3, 83180 ± 450 nM. In addition, the “Genotoxic effect (DNA breaks) in comet assay” value (from here on “Genotoxic effect (DNA breaks)”) in experiment [2] is “biggest genotoxic effects; also recorded: strongest effects”. The “Comet tail length, mean (vary)” value in experiment [2] is 142780000. For the same molecule, the “Comet tail length, median (Q50)” value in experiment [2] was found to be 128000000. Also, the results for the inhibition at 100 µM in the experiment with PC-3 and in the experiment with HeLa were 46.7 ± 3.78% and 47.2 ± 1.36%, respectively.

In the case of `CC1=NN(c2ccccc2)C(=O)[C@@]12C(c1cccc(F)c1)[C@@]21C(=O)N(c2ccccc2)N=C1C` (relative stereo) [4t, (5R*,6R*)-11-(3-Fluorophenyl)-4,10-dimethyl-2,8-diphenyl-2,3,8,9-tetraazadispiro[4.0.4.1]undeca-3,9-diene-1,7-dione], the “SI (Selectivity Index) = Citotoxic activity/Leishmanicidal activity” value in experiment [1] is 12.3. Besides, the IC50 amounted to 216 nM in experiment [1] (setting [4]) and 220 ± 50 nM in experiment [1] (setting [5]). Also, the “Genotoxic effect (DNA breaks)” value in experiment [2] is “biggest genotoxic effects”. Also, the “Comet tail length, mean (vary)” value in experiment [2] came out at 124410000. Also, in experiment [2], the “Comet tail length, median (Q50)” value amounted to 116000000. Further, the inhibition at 100 µM with PC-3 was 13.8 ± 2.87%; in the experiment with HeLa it was 5.06 ± 2.43%.

As to `CSc1ccc(C2[C@]3(C(=O)N(c4ccccc4)N=C3C)[C@@]23C(=O)N(c2ccccc2)N=C3C)cc1` (relative stereo) [4u, (5R*,6R*)-11-(4-Thiomethylphenyl)-4,10-dimethyl-2,8-diphenyl-2,3,8,9-tetraazadispiro[4.0.4.1]undeca-3,9-diene-1,7-dione], in experiment [1], the “SI (Selectivity Index) = Citotoxic activity/Leishmanicidal activity” value is listed as 22.1. Also, in experiment [1] (setting [4]), the concentration for half-maximal inhibition (IC50) worked out at 417 nM. Moreover, the IC50 in experiment [1] (setting [5]) was determined as 420 ± 250 nM. In experiment [2], the “Genotoxic effect (DNA breaks)” value was “highest genotoxic activity; also recorded: strongest effects”; the “Comet tail length, mean (vary)” value turned out to be 179560000; the “Comet tail length, median (Q50)” value came out at 177500000. In the experiment on PC-3, the inhibition at 100 µM is 38.7 ± 3.77%. The inhibition at 100 µM in the experiment with HeLa turned out to be 34.7 ± 2.29%.

The values above are taken from paper PMC8398714, “Synthesis and Evaluation of Biological Activities of Bis(spiropyrazolone)cyclopropanes: A Potential Application against Leishmaniasis” (Molecules, 2021).
